Experimental data from patent publication US11337990B2, “Human milk oligosaccharides to promote growth of beneficial bacteria” (ABBOTT LABORATORIES, priority 2010, dated 2022).
Entries after “also recorded” stand apart in the source; their conditions may differ.

Legend:
[1] = test system: HT-29 cells; test: HT-29 cell proliferation, BrdU assay; assay type: cell-based, human
Procedure: In a first experiment, HT-29 cells, which model the immature epithelial cells of the small intestine, are incubated in a humidified atmosphere of 5% carbon dioxide at 37 C in the presence of LNnT at concentrations of 0 mg/L (“0”), 100 mg/L (“100”), 200 mg/L (“200”), and 400 mg/L (“400”) for either 48 hours or 72 hours. The culture medium utilized is Dulbecco's Modified Eagle Medium (Life Technologies, Foster City Calif.) supplemented with 10% fetal calf serum and 2 mM glutamine. The control consists of a combination of 91.5 mg lactose and 62.4 mg galactosamine (“LG”) per Liter of the Dulbecco's Modified Eagle Medium set forth above. The impact of the LNnT at various levels and the control on HT-29 cell proliferation is measured using a conventional BrdU assay, which measures the number of cells that have recently synthesized DNA.
In a first experiment, HT-29 cells, which model the immature epithelial cells of the small intestine, are incubated in a humidified atmosphere of 5% carbon dioxide at 37° C. in the presence of LNnT or 2′FL at concentrations of 0 mg/L (“0”), 20 mg/L (“20”), 200 mg/L (“200”), and 2000 mg/L (“2000”) or in the presence of 6′SL at concentrations of 0 mg/mL (“0”), 40 mg/mL (“40”), 400 mg/mL (“400”), and 4000 mg/mL (“4000”) for 72 hours. The culture medium utilized is Dulbecco's Modified Eagle Medium (Life Technologies, Foster City Calif.) supplemented with 10% fetal calf serum and 2 mM glutamine. The controls (“energy”) consist of 91.5 mg lactose and 64.2 mg N-acetyllactosamine/L for LNnT; 133 mg lactose and 67 mg fucose/L for 2′FL; and 195 mg lactose and 205 mg/L sialic acid for 6′SL. The impact of the LNnT, 2′FL, and 6′SL at various levels and the controls on HT-29 cell proliferation is measured using a conventional BrdU assay, which measures the number of cells that have recently synthesized DNA. […] Additionally, the impact of LNnT, 2′FL, and 6′SL at various levels and the controls on the alkaline phosphatase activity per milligram of protein for HT-29 cells, which is an indicator of cell differentiation, is measured.

[2] = test system: infant fecal bacteria; test: In vitro substrate fermentation model with infant feces (pH, SCFA, lactate); assay type: cell-based, human infant
[3] = test system: Caco-2 cells; test: Alkaline phosphatase activity per milligram of protein (cell differentiation), Caco-2; assay type: cell-based, human; conditions: Example 48: LNnT or 2′FL 20, 200, 2000 mg/L; 6′SL 40, 400, 4000 mg/mL; 72 hours
Procedure: In a second experiment, Caco-2 cells, which model more mature epithelial cells of the small intestine, are incubated in a humidified atmosphere of 5% carbon dioxide at 37° C. in the presence of LNnT or 2′FL at concentrations of 0 mg/L (“0”), 20 mg/L (“20”), 200 mg/L (“200”), and 2000 mg/L (“2000”) or in the presence of 6′SL at concentrations of 0 mg/mL (“0”), 40 mg/mL (“40”), 400 mg/mL (“400”), and 4000 mg/mL (“4000”) for 72 hours. The culture medium utilized is Dulbecco's Modified Eagle Medium (Life Technologies, Foster City Calif.) supplemented with 10% fetal calf serum and 2 mM glutamine. The controls (“energy”) consist of 91.5 mg lactose and 64.2 mg N-acetyllactosamine/L for LNnT; 133 mg lactose and 67 mg fucose/L for 2′FL; and 195 mg lactose and 205 mg sialic acid/L for 6′SL. The impact of the LNnT, 2′FL, and 6′SL at various levels and the control on Caco-2 cell proliferation is measured using a conventional BrdU assay, which measures the number of cells that have recently synthesized DNA. […] Additionally, the impact of LNnT, 2′FL, and 6′SL at various levels and the controls on the alkaline phosphatase activity per milligram of protein for Caco-2 cells, which is an indication of cell differentiation, is measured.

[4] = test system: Caco-2 cells; test: Transepithelial resistance (barrier function), Caco-2, Ussing chambers; assay type: cell-based, human; conditions: Example 48, more mature Caco-2 cells
Source text: FIGS. 46-48 illustrate the effect of LNnT, 2′FL, and 6′SL on cell resistance (transepithelial resistance), which is a marker for epithelial barrier function, wherein a higher resistance is associated with a higher barrier function. Epithelial cell resistance or barrier function is a measure of differentiated epithelial cell function. Specifically, as the cells mature, tighter junctions between the cells are formed resulting in a stronger epithelial cell barrier. This barrier prevents the movement of large molecules, bacteria, or viruses from one side of the barrier to the other. […] Transepithelial resistance is measured using Transwell Snapwell inserts containing the desired cell culture were transferred to modified Ussing chambers and bathed in modified Kreb's solution at 37 C with 95% oxygen and 5% carbon dioxide. Transepithelial resistance was measured as the passive transport of ions across the monolayers.

Question: For `CC(=O)N[C@H]1[C@H](O[C@H]2[C@@H](O)[C@@H](CO)O[C@@H](O[C@H]3[C@H](O)[C@@H](O)C(O)O[C@@H]3CO)[C@@H]2O)O[C@H](CO)[C@@H](O[C@@H]2O[C@H](CO)[C@H](O)[C@H](O)[C@H]2O)[C@@H]1O` (mixture of isomers) [LNnT, Lacto-N-neotetraose], which HT-29 cell proliferation ([1]; Example 47: 100, 200, 400 mg/L, 48 or 72 hours) is on record?
Answer: reduced HT-29 cell proliferation; also recorded: inhibits intestinal cell proliferation

Question: What about the HT-29 cell proliferation ([1]; Example 48: LNnT or 2′FL 20, 200, 2000 mg/L, 6′SL 40, 400, 72 hours) of the same compound?
Answer: capable of reducing cell proliferation at higher doses; also recorded: inhibits intestinal cell proliferation in immature epithelial cells

Question: And the fermentation rate [2]?
Answer: about 4,488 μg/g of dry matter/hour

Question: What about the acetate production ([2]; 3 and 6 h) of the same compound?
Answer: produce similar amounts of acetate

Question: And the acetate production ([2]; 6 h)?
Answer: less acetate than GOS

Question: What about the “acetate production, formula fed versus breast fed infants” value ([2]; 12 h) of the same compound?
Answer: greater

Question: And the lactate production ([2]; 12 h)?
Answer: greater (P<0.0001) compared to gum Arabic

Question: What about the “total SCFA production, formula fed versus breast fed infants” value ([2]; after 3, 6 and 12 h of fermentation) of the same compound?
Answer: greater (P=0.01) fermentation by formula fed infants

Question: What about the “pH change from baseline” value ([2]; at 3, 6 and 12 h after inoculation) of the same compound?
Answer: greatest

Question: What about the “fermentability by infant fecal bacteria” value ([2]; overall) of the same compound?
Answer: highly fermentable; also recorded: readily fermented

Question: And the propionate production ([2]; overall)?
Answer: greater (P<0.0001) propionate production than gum Arabic

Question: And the “relative rate of fermentation” value ([2]; overall)?
Answer: fermented more rapidly than 6′SL; also recorded: fermentation rates similar to GOS

Question: What about the lactate production ([2]; time not stated (between the 3 h and 12 h statements)) of the same compound?
Answer: greater (P<0.0001)

Question: What about the lactate accumulation ([2]; up to 12 h) of the same compound?
Answer: significant amounts of lactate

Question: And the “alkaline phosphatase activity per milligram of protein (cell differentiation)” value [3]?
Answer: trend toward an increase

Question: What about the “cell resistance (transepithelial resistance), barrier function” value [4] of the same compound?
Answer: can have a positive effect on cell resistance; also recorded: can positively affect barrier function of more mature cells
